From patent US12403128B2, “Compositions and methods for blocking sodium channels” (University of Virginia Patent Foundation, priority 2017, dated 2025) come the findings set out here.

For orientation: inhibition means the share of the control response that was lost under treatment. Low readings indicate a weak effect, high ones a strong effect. As a reminder, the IC50 is the concentration that gives 50% inhibition.

Each structure is given as a SMILES string. Structures can show the parent of a compound that is named as a salt.

The target in this test is Nav1.6 (Homo sapiens, UniProt Q9UQD0). Nature of the test: % block of Nav1.6 at 100 μM and IC50 (NaV1.6). As to conditions: for inhibition at 100 µM: 100 μM compound; for IC50: NaV1.6, Table 2, MV1060-MV1091, unit inferred, read-out: IC50. Type of test: cell-based. On the procedure: Evaluation of Compounds for % Block of Nav1.6 at 100 μM
Compounds of the present invention were tested in an assay for % block of Nav1.6 at a concentration of 100 μM compound. Table 1 also indicates the melting point ranges for some compounds.
Some such compounds correspond to a compound of Formula III, wherein R9 is substituted with a halogen, a nitro or a CF3 group. In comparing MV1089, MV1090 and MV1091, it is shown that compounds of Formula III where R3 is H result in higher % block than when R3 is substituted. e.g., by OCH3. In comparing MV1066, MV1084, MV1085, MV1086, MV1087 and MV1088, it is shown that compounds of Formula III where R9 is halogen, a nitro or a CF3 group result in higher % block than when R9 is OCH3, COOH or CH3.

Chain of Nav1.6 (Q9UQD0 whole entry): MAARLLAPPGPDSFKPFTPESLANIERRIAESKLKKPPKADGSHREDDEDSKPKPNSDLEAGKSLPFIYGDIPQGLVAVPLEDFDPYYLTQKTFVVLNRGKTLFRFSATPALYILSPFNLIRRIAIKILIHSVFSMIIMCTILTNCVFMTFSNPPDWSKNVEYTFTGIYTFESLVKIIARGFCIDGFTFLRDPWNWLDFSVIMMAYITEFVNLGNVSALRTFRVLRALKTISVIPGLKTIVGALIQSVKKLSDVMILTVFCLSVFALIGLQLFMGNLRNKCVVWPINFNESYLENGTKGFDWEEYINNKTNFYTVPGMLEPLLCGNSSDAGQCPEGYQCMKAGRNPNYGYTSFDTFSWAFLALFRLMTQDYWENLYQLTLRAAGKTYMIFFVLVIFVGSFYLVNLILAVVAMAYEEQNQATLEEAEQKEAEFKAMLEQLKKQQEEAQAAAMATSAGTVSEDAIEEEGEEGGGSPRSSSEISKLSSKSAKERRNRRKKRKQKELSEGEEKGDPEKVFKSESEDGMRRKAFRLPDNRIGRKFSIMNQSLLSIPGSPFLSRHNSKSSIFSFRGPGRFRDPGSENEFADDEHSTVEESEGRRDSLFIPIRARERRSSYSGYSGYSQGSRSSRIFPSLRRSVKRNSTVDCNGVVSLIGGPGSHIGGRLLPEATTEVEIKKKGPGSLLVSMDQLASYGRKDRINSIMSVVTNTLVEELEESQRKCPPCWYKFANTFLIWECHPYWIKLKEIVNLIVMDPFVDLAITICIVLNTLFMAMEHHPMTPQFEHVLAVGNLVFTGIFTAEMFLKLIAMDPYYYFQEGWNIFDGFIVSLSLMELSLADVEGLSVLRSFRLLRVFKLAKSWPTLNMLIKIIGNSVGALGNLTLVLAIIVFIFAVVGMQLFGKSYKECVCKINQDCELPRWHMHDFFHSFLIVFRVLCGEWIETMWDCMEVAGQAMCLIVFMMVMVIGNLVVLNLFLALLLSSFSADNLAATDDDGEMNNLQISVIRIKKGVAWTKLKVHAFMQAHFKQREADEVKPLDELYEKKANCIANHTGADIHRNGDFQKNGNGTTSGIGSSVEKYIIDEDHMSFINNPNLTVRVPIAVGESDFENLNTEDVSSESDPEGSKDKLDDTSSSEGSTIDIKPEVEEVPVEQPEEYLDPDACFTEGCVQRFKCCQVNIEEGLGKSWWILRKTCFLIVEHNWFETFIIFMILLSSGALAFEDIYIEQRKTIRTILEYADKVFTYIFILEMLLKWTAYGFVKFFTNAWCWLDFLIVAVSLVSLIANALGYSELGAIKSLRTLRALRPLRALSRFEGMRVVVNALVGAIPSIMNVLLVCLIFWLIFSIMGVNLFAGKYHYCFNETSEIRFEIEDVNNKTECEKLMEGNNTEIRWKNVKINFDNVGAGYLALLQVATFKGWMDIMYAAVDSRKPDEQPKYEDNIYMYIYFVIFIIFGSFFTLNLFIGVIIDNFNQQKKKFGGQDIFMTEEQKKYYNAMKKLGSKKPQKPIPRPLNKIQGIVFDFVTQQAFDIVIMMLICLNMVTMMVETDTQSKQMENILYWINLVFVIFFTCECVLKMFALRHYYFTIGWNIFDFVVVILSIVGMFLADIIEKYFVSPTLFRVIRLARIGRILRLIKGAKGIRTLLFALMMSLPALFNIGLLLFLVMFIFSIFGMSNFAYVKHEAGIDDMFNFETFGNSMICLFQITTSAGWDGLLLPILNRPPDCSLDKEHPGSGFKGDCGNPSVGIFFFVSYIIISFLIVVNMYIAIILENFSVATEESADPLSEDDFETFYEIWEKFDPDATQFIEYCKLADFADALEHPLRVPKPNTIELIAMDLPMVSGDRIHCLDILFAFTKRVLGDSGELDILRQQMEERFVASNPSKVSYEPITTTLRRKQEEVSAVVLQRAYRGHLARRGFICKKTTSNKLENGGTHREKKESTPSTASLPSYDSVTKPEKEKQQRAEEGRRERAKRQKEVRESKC

In turn, `CCCc1nc(-c2ccccc2OC)[nH]c1C` [MV1370, 2-(2-METHOXY-PHENYL)-5-METHYL-4-PROPYL-1H-IMIDAZOLE OXALATE] had an inhibition at 100 µM of 90%.

Compound `O=[N+]([O-])c1ccc2nc(-c3ccccc3)[nH]c2c1` [MV1084, 6-nitro-2-phenyl-1H-1,3-benzodiazole] yielded an inhibition at 100 µM of 70%.

For the compound `CCCc1nc(-c2cccc(OC)c2)[nH]c1C` [MV1369, 2-(3-METHOXY-PHENYL)-5-METHYL-4-PROPYL-1H-IMIDAZOLE OXALATE], testing at 100 µM gave an inhibition of 100%.

As to `O=C(Nc1cccc(-c2c[nH]c(-c3ccccc3)n2)c1)c1ccc(Cl)cc1` [MV1311, 4-CHLORO-N-[3-(2-PHENYL-1H-IMIDAZOL-4-YL)-PHENYL]-BENZAMIDE HYDROCHLORIDE], the inhibition at 100 µM was found to be 90%.

With `COc1ccc(-c2nc(C)c(C)[nH]2)cc1` [MV1362, 2-(4-METHOXY-PHENYL)-4,5-DIMETHYL-1H-IMIDAZOLE OXALATE], the inhibition at 100 µM was 85%.

Regarding `Cc1cnc(-c2ccccc2Cl)[nH]1` [MV1361, 2-(2-CHLORO-PHENYL)-5-METHYL-1H-IMIDAZOLE OXALATE], the inhibition at 100 µM was 0%.

`O=C(Nc1ccc(-c2c[nH]c(-c3ccccc3)n2)cc1)c1ccc(Cl)cc1` [MV1305, 4-CHLORO-N-[4-(2-PHENYL-1H-IMIDAZOL-4-YL)-PHENYL]-BENZAMIDE HYDROCHLORIDE] came in with an inhibition at 100 µM of 50%.

As for `O=C(Nc1ccc(-c2c[nH]c(-c3ccccc3)n2)cc1)c1ccccc1` [MV1301, N-(4-[2-PHENYL-1H-IMIDAZOL-4-YL)-PHENYL]-BENZAMIDE HYDROCHLORIDE], the inhibition at 100 µM amounted to 0%.

Compound `COc1ccc(C(=O)Nc2cccc(-c3c[nH]c(-c4ccccc4)n3)c2)cc1` [MV1309, 4-METHOXY-N-[3-[2-PHENYL-1H-IMIDAZOL-4-YL]-PHENYL]-BENZAMIDE HYDROCHLORIDE] had an inhibition at 100 µM of 75%.

`Cc1ccccc1-c1nc2ccccc2[nH]1` [MV1081, 2-(2-methylphenyl)-1H-1,3-benzodiazole]: the inhibition at 100 µM was 25% and the IC50 was more than 100 µM.

Compound `COc1ccc(-c2nc(-c3cccc(NC(=O)c4ccccc4)c3)c[nH]2)cc1` [MV1308, N-(3-[2-(4-METHOXY-PHENYL)-1H-IMIDAZOL-4-YL]-PHENYL)-BENZAMIDE HYDROCHLORIDE] registered an inhibition at 100 µM of 75%.

Regarding `COc1cccc(-c2nc(C)c(C)[nH]2)c1` [MV1363, 2-(3-METHOXY-PHENYL)-4,5-DIMETHYL-1H-IMIDAZOLE OXALATE], the inhibition at 100 µM came to 80%.

Consider `Clc1cccc(-c2nc3ccccc3[nH]2)c1` [MV1069, 2-(3-chlorophenyl)-1H-1,3-benzodiazole], for which at 100 µM the inhibition was 65% and the IC50 worked out at 37 µM.

For `Cc1cnc(-c2ccc(Cl)cc2)[nH]1` [MV1359, 2-(4-CHLORO-PHENYL)-5-METHYL-1H-IMIDAZOLE OXALATE], at 100 µM the inhibition was 75%.

In the case of `COc1cccc(-c2ncc[nH]2)c1` [MV1351, 2-(3-METHOXY-PHENYL)-1H-IMIDAZOLE OXALATE], the inhibition at 100 µM stood at 25%.

In turn, `COc1ccccc1-c1ncc[nH]1` [MV1352, 2-(2-METHOXY-PHENYL)-1H-IMIDAZOLE OXALATE] showed an inhibition at 100 µM of 30%.

`Clc1ccccc1-c1ncc[nH]1` [MV1355, 2-(2-CHLORO-PHENYL)-1H-IMIDAZOLE OXALATE] yielded an inhibition at 100 µM of 0%.

`O=[N+]([O-])c1cccc(-c2nc3ccccc3[nH]2)c1` [MV1071, 2-(3-nitrophenyl)-1H-1,3-benzodiazole]: at 100 µM the inhibition was 30% and the IC50 was more than 100 µM.

Compound `COc1ccc(C(=O)Nc2cccc(-c3c[nH]c(-c4ccc(OC)cc4)n3)c2)cc1` [MV1310, 4-METHOXY-N-(3-[2-(4-METHOXY-PHENYL)-1H-IMIDAZOL-A-YL]-PHENYL)-BENZAMIDE HYDROCHLORIDE] had an inhibition at 100 µM of 60%.

As for `FC(F)(F)c1cccc(-c2nc3ccccc3[nH]2)c1` [MV1076, 2-(3-trifluoromethyl-phenyl)-1H-1,3-benzodiazole], at 100 µM the inhibition was 60%.

Consider `COc1ccc(-c2nc3cc(Cl)ccc3[nH]2)cc1` [MV1091, 6-chloro-2-(4-methoxyphenyl)-1H-1,3-benzodiazole], for which at 100 µM the inhibition was 0% and the IC50 is more than 100 µM.

For the compound `Cc1cnc(-c2cccc(Cl)c2)[nH]1` [MV1360, 2-(3-CHLORO-PHENYL)-5-METHYL-1H-IMIDAZOLE OXALATE], the inhibition at 100 µM is 70%.

As to `FC(F)(F)c1ccccc1-c1nc2ccccc2[nH]1` [MV1075, 2-(2-trifluoromethyl-phenyl)-1H-1,3-benzodiazole], the inhibition at 100 µM is 20% and the IC50 is more than 100 µM.

Consider `COc1ccc2nc(-c3ccccc3)[nH]c2c1` [MV1085, 6-methoxy-2-phenyl-1H-1,3-benzodiazole], for which at 100 µM the inhibition was 35% and the IC50 was more than 100 µM.

`Cc1nc(-c2ccccc2Cl)[nH]c1C` [MV1367, 2-(2-CHLORO-PHENYL)-4,5-DIMETHYL-1H-IMIDAZOLE OXALATE]: testing at 100 µM gave an inhibition of 45%.

As to `Cc1ccc(-c2nc3ccccc3[nH]2)cc1` [MV1083, 2-(4-methylphenyl)-1H-1,3-benzodiazole], the inhibition at 100 µM is 30% and the IC50 was more than 100 µM.

Turning to `Cc1ccc2nc(-c3ccccc3)[nH]c2c1` [MV1088, 6-methyl-2-phenyl-1H-1,3-benzodiazole], at 100 µM the inhibition was 55%.

Consider `O=C(Nc1cccc(-c2c[nH]c(-c3ccccc3)n2)c1)c1ccccc1` [MV1307, N-[3-(2-PHENYL-1H-IMIDAZOL-4-YL)-PHENYL]-BENZAMIDE HYDROCHLORIDE], for which 100 µM produced 25% inhibition.

Compound `COc1ccc(-c2nc(-c3cccc(NC(=O)c4ccc(Cl)cc4)c3)c[nH]2)cc1` [MV1312, 4-CHLORO-N-(3-[2-(4-METHOXY-PHENYL)-1H-IMIDAZOL-4-YL]-PHENYL)-BENZAMIDE HYDROCHLORIDE] came in with an inhibition at 100 µM of 85%.

With `O=[N+]([O-])c1ccc(-c2nc3ccccc3[nH]2)cc1` [MV1072, 2-(4-nitrophenyl)-1H-1,3-benzodiazole], the inhibition at 100 µM was found to be 20% and the IC50 is more than 100 µM.

In the case of `COc1cccc(-c2nc3ccccc3[nH]2)c1` [MV1074, 2-(3-methoxyphenyl)-1H-1,3-benzodiazole], the inhibition at 100 µM came out at 40% and the IC50 is more than 100 µM.

Turning to `COc1ccc(-c2ncc(C)[nH]2)cc1` [MV1356, 2-(4-METHOXY-PHENYL)-5-METHYL-1H-IMIDAZOLE OXALATE], the inhibition at 100 µM is 65%.

In turn, `Clc1ccc(-c2ncc[nH]2)cc1` [MV1353, 2-(4-CHLORO-PHENYL)-1H-IMIDAZOLE OXALATE] returned an inhibition at 100 µM of 30%.

With `O=C(O)c1ccc2nc(-c3ccccc3)[nH]c2c1` [MV1087, 2-phenyl-1H-1,3-benzodiazole-6-carboxylic acid], testing at 100 µM gave an inhibition of 0% and the IC50 is more than 100 µM.

In turn, `Cc1nc(-c2ccc(Cl)cc2)[nH]c1C` [MV1365, 2-(4-CHLORO-PHENYL)-4,5-DIMETHYL-1H-IMIDAZOLE OXALATE] yielded an inhibition at 100 µM of 85%.

Turning to `CCCc1nc(-c2cccc(Cl)c2)[nH]c1C` [MV1372, 2-(3-CHLORO-PHENYL)-5-METHYL-4-PROPYL-1H-IMIDAZOLE OXALATE], the inhibition at 100 µM stood at 100%.

The compound `Clc1cccc(-c2ncc[nH]2)c1` [MV1354, 2-(3-CHLORO-PHENYL)-1H-IMIDAZOLE OXALATE] came in with an inhibition at 100 µM of 20%.
